Among the data in patent publication US20250346579A1, “PYRIDAZINONE COMPOUND AND PREPARATION METHOD THEREFOR, PHARMACEUTICAL COMPOSITION THEREOF, AND APPLICATION THEREOF” (CHINA PHARMACEUTICAL UNIVERSITY, priority 2021, published 2025) are IC50 values, retold here.

Read-outs that look alike come from different tables or passages of the source.

This assay concerns the target T1, PARP7 (Homo sapiens, UniProt Q7Z3E1).
T1 construct: purchased BPS Bioscience
T1 sequence (Q7Z3E1 1-657): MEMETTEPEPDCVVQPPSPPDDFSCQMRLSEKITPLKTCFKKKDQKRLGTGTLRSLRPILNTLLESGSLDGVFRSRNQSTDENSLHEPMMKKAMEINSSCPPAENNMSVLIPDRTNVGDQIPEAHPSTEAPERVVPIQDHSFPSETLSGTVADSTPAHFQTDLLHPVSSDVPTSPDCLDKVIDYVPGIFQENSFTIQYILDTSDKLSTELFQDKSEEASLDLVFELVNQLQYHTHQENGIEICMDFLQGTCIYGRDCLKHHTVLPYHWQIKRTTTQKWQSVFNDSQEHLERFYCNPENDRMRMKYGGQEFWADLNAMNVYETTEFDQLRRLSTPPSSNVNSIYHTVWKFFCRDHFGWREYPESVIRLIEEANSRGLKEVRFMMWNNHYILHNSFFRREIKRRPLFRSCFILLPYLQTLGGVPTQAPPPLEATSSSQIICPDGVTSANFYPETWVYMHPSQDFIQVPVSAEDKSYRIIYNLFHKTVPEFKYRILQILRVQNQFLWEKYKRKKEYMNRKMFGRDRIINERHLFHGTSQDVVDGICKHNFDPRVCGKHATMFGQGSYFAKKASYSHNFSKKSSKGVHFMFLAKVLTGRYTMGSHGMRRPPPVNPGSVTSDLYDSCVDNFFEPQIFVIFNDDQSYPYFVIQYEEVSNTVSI
As to the kind of experiment: Inhibitory activity of compounds on PARP7 enzyme (PARP7 Chemiluminescent Assay Kit). Type of assay: biochemical. The method, then: Experimental materials: PARP7 Chemiluminescent Assay Kit, BPS Bioscience; DMSO, China National Pharmaceutical Group, Nivo, PerkinElmer.
(1) Preparation of Solutions and Buffers:
Preparation of 10×PBS: 720 mg of KH2PO4, 45 g of NaCl and 5.311 g of Na2HPO4·12H2O were weighed respectively and dissolved in 500 mL of deionized water, a system pH value was adjusted to 7.4, sterilization was performed at 121° C. for 30 min, and the system after cooling was placed at 4° C. for later use.
Preparation of 1×PBS: 10×PBS was diluted 10 times with deionized water, that is, 9 parts of deionized water was added to 1 part of 10×PBS for dilution.
Preparation of wash buffer: 1×PBS contained 0.05% Tween-20.
Preparation of 1×PARP buffer (prepared freshly before use): 10×PARP buffer was diluted 10 times with deionized water and placed on ice for later use.
(2) Preparation of Compound Working Solution Concentration:
According to test requirements, a compound to be tested is diluted with 100% DMSO to a desired concentration, and then diluted 10 times with 1×PARP buffer to prepare a 10× compound working solution.
a. 5× histone mixture was thawed on ice one day prior to the experiment;
b. preparation of 1× histone mixture: 1× histone mixture was prepared through the 5× histone mixture by using 1×PBS; and 25 μL of 1× histone mixture was taken from each well and transferred into a test well plate and incubated overnight at 4° C.;
c. 100 μL of Blocking buffer was taken from each well and added to the test well plate and incubated for 90 min at 25° C.;
d. after the incubation was completed, the liquid in the test well plate was spin-dried, and the test well plate was washed repeatedly for 3 times;
e. 2.5 μL of the compound working solution was taken from each well and added to the test well plate according to an experimental layout diagram; and 1×PARP buffer with a corresponding volume of 10% DMSO was added to positive control wells (Positive Control), and 1×PARP buffer of a corresponding volume was added to blank control wells (Blank);
f. after the enzyme was completely dissolved, an enzyme stock solution was diluted with 1×PARP buffer to 6 ng/μL;
g. 10 μL of enzyme solution was taken from each well and added to the test well plate, the blank control wells were added with the corresponding volume of 1×PARP buffer, and in which case, the enzyme amount was 60 ng per well. Note: this step needs to be performed on ice;
h. 12.5 μL of master mixture was added to each well of the test well plate (12.5 μL master mixture included 1.25 μL of 10×PARP buffer, 1.25 μL of Opti-PARP 10× Assay mixture and 10 μL of water); the test well plate was sealed and incubated at 25° C. for 60 min;
i. after the incubation was completed, the liquid in the test well plate was spin-dried, and the test well plate was washed repeatedly for 3 times;
j. Streptavidin-HRP in a kit was diluted 50 times with a Blocking buffer, 25 μL was taken from each well and added to the test well plate, and incubated at 25° C. for 30 min;
k. after the incubation was completed, the liquid in the test well plate was spin-dried, and the test well plate was washed repeatedly for 3 times;
l. ELISA ECL Substrate A and ELISA ECL Substrate B in the kit was mixed to obtain a mixed solution according to a ratio of 1:1, 50 μL of the mixed solution was added to each well of the test well plate, Nivo was used to perform Luminescence detection immediately, and a luminous value (RLU) was read; and
m. calculation of an enzyme rate: Enzyme Activity=(RLU(Sample)−RLU(Blank))/(RLU(Pos.Ctrl)−RLU(Blank))×100%; and enzyme inhibition rate=1−% Enzyme Activity, and specific results were shown in Table 1 below.

[1] abbreviates: chemiluminescence, symbols defined as IC50 classes, read-out: 100 nM Inhibition Rate.
[2] abbreviates: summary of Table 1, read-out: enzyme inhibition IC50 values.

For `C[C@@H](CCN1CC(C(=O)N2CCN(c3ncc(C(F)(F)F)cn3)CC2)C1)Nc1cn[nH]c(=O)c1C(F)(F)F` [I-A-21, (S)-4-(trifluoromethyl)-5-((4-(3-(4-(5-(trifluoromethyl)pyrimidin-2-yl)piperazine-1-carbonyl)azetidin-1-yl)butan-2-yl)amino)pyridazin-3(2H)-one], the IC50 under setting [1] was in the range of 100 to 500 nM.

Take `C[C@@H](CN1CC(C(=O)N2CCN(c3ncc(C(F)(F)F)cn3)CC2)C1)Nc1cn[nH]c(=O)c1Cl` [I-A-22, (S)-4-chloro-5-((1-(3-(4-(5-(trifluoromethyl)pyrimidin-2-yl)piperazine-1-carbonyl)azetidin-1-yl)propan-2-yl)amino)pyridazin-3(2H)-one]: under setting [1], the IC50 fell in the range of 100 to 500 nM.

Take `C[C@@H](CN1CC(C(=O)N2CCN(c3ncc(C(F)(F)F)cn3)CC2)C1)Nc1cn[nH]c(=O)c1Br` [I-A-23, (S)-4-bromo-5-((1-(3-(4-(5-(trifluoromethyl)pyrimidin-2-yl)piperazine-1-carbonyl)azetidin-1-yl)propan-2-yl)amino)pyridazin-3(2H)-one]: the IC50 under setting [1] was in the range of 100 to 500 nM.

Take `O=C(C1CN(CC2(Nc3cn[nH]c(=O)c3C(F)(F)F)CC2)C1)N1CCN(c2ncc(C(F)(F)F)cn2)CC1` [I-A-24, 4-(trifluoromethyl)-5-((1-((3-(4-(5-(trifluoromethyl)pyrimidin-2-yl)piperazine-1-carbonyl)azetidin-1-yl)methyl)cyclopropyl)amino)pyridazin-3(2H)-one]: the IC50 under setting [1] fell in the range of 100 to 500 nM.

For `C[C@@H](CN1CC(C(=O)N2CCN(c3ccc4c(c3)OC(F)(F)O4)CC2)C1)Nc1cn[nH]c(=O)c1C(F)(F)F` [I-B-1, (S)-5-((1-(3-(4-(2,2-difluorobenzo[d][1,3]dioxol-5-yl)piperazine-1-carbonyl)azetidin-1-yl)propan-2-yl)amino)-4-(trifluoromethyl)pyridazin-3(2H)-one], the IC50 reads like this: under setting [1], less than 100 nM; under setting [2], less than 100 nM.

Regarding `C[C@@H](Cn1ccc(C(=O)N2CCN(c3ncc(C(F)(F)F)cn3)CC2)c1)Nc1cn[nH]c(=O)c1C(F)(F)F` [I-C-1, (S)-4-(trifluoromethyl)-5-((1-(3-(4-(5-(trifluoromethyl)pyrimidin-2-yl)piperazine-1-carbonyl)-1H-pyrrol-1-yl)propan-2-yl)amino)pyridazin-3(2H)-one], the IC50 is less than 100 nM under setting [1] and less than 100 nM under setting [2].

Regarding `CC(CC1CN(C(=O)C2CCN(c3ncc(C(F)(F)F)cn3)CC2)C1)Nc1cn[nH]c(=O)c1C(F)(F)F` [I-D-1, 4-(trifluoromethyl)-5-((1-(1-(1-(5-(trifluoromethyl)pyrimidin-2-yl)piperidine-4-carbonyl)azetidin-3-yl)propan-2-yl)amino)pyridazin-3(2H)-one], the IC50 is, setting by setting: under setting [1], less than 100 nM; under setting [2], less than 100 nM.

Take `O=C(NCCCCNc1cn[nH]c(=O)c1C(F)(F)F)N1CCN(c2ncc(C(F)(F)F)cn2)CC1` [I-E-1, N-(4-((6-oxo-5-(trifluoromethyl)-1,6-dihydropyridazin-4-yl)amino)butyl)-4-(5-(trifluoromethyl)pyrimidin-2-yl)piperazine-1-carboxamide]: the IC50 runs as follows: under setting [1], less than 100 nM; under setting [2], less than 100 nM.

As for `O=C(NC/C=C/CNc1cn[nH]c(=O)c1C(F)(F)F)N1CCN(c2ncc(C(F)(F)F)cn2)CC1` [I-E-2, (E)-N-(4-((6-oxo-5-(trifluoromethyl)-1,6-dihydropyridazin-4-yl)amino)but-2-en-1-yl)-4-(5-(trifluoromethyl)pyrimidin-2-yl)piperazine-1-carboxamide], the IC50 was less than 100 nM under setting [1] and less than 100 nM under setting [2].

As for `O=C(Nc1cccc(CNc2cn[nH]c(=O)c2C(F)(F)F)c1)N1CCN(c2ncc(C(F)(F)F)cn2)CC1` [I-E-7, N-(3-(((6-oxo-5-(trifluoromethyl)-1,6-dihydropyridazin-4-yl)amino)methyl)phenyl)-4-(5-(trifluoromethyl)pyrimidin-2-yl)piperazine-1-carboxamide], the IC50 is less than 100 nM under setting [1] and less than 100 nM under setting [2].
